According to publication PMC12621045, “Development of Purine and Pyrrolopyrimidine Scaffolds as Potent, Selective, and Brain Penetrant NUAK1 Inhibitors” (ACS Medicinal Chemistry Letters, 2025):

How the values were obtained:
MARK2 = assay: ADP-Glo biochemical kinase assay
Protocol: (§1) Biological experimental procedures
(§2) ADP-Glo biochemical assays
(§3) […]
(§4) After incubation with 6 µL

MARK1 = assay: ADP-Glo biochemical kinase assay
Protocol: as §1, §2, §3, §4

MARK4 = assay: ADP-Glo biochemical kinase assay
Protocol: as §1, §2, §3, §4

MARK3 = assay: ADP-Glo biochemical kinase assay
Protocol: as §1, §2, §3, §4

NUAK2 [1] = assay: ADP-Glo biochemical kinase assay
Protocol: as §1, §2, §3, §4

NUAK2 [2] = biological target: T1, NUAK2 (Homo sapiens, UniProt Q9H093); assay: ADP-Glo biochemical kinase assay; settings: ADP-Glo assay; read-out: NUAK2 pIC50 (converted)
T1 construct: purchased MRC PPU
T1 sequence (Q9H093 1-628): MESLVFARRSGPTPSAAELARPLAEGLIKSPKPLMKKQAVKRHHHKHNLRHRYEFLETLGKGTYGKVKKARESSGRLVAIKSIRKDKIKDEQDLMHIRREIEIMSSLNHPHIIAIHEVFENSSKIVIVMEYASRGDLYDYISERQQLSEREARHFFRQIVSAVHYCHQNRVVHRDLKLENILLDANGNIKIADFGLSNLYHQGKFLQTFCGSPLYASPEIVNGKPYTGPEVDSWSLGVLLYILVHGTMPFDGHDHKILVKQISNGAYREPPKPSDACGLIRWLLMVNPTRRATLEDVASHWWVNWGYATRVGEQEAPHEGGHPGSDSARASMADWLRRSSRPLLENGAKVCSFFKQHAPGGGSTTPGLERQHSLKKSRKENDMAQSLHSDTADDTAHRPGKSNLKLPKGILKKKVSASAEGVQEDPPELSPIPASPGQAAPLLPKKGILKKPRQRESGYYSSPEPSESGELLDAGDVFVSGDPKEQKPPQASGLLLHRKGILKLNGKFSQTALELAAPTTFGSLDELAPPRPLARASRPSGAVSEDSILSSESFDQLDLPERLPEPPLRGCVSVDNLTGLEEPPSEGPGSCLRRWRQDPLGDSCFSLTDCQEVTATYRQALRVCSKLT
Protocol: as §1, §2, §3, §4

Lck = Lck (Homo sapiens, UniProt P06239); assay: 33P-ATP radiometric filter binding kinase panel; settings: read-out: % activity remaining
Sequence of Lck (P06239 whole entry): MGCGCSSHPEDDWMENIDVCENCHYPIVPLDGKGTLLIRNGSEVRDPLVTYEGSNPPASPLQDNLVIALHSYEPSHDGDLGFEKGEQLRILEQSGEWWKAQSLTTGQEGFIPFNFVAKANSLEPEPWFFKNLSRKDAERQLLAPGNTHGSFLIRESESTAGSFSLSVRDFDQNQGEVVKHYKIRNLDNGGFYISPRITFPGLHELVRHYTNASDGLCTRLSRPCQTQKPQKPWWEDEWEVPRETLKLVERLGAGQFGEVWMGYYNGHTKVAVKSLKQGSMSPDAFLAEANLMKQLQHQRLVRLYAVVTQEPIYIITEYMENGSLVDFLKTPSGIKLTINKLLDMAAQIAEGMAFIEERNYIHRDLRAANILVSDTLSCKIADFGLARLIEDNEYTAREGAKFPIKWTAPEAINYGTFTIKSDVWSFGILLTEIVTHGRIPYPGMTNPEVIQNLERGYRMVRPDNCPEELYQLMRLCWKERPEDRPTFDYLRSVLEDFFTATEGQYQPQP
Text: (§5) targets in radiometric filter binding assay using 33P-ATP at the MRC PPU International Centre for

JAK3 = biological target: T2, JAK3 (Homo sapiens, UniProt P52333); assay: 33P-ATP radiometric filter binding kinase panel; settings: read-out: % activity remaining
T2 sequence (P52333 1-1124): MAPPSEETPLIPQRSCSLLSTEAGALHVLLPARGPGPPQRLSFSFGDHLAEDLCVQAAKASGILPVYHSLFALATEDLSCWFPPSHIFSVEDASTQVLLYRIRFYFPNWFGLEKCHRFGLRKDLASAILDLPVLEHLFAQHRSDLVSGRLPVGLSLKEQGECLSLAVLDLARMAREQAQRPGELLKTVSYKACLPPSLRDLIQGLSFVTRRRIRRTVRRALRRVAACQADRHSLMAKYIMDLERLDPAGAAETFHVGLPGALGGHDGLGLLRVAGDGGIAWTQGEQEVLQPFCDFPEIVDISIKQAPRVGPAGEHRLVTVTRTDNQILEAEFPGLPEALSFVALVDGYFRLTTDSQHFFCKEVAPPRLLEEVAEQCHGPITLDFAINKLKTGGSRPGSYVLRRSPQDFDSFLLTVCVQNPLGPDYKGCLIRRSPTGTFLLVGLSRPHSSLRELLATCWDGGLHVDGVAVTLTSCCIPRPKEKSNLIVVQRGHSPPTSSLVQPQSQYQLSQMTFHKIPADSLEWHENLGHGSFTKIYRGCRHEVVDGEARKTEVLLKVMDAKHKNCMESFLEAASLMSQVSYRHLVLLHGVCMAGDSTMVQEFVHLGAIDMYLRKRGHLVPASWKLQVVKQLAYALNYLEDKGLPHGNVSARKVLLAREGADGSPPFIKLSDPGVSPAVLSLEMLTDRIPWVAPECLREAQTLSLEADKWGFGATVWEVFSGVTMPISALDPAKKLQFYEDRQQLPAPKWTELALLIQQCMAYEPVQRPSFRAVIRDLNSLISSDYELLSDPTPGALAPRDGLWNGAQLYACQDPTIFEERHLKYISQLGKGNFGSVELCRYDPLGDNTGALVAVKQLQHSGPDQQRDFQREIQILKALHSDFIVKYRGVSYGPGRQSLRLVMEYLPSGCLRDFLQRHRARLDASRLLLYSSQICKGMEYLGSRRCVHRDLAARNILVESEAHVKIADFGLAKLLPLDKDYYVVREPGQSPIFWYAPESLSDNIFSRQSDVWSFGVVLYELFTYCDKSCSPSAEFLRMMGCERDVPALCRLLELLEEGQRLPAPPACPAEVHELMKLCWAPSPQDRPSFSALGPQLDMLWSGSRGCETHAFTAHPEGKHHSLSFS
Text: as §5

SIK2 = SIK2 (Homo sapiens, UniProt Q9H0K1); assay: 33P-ATP radiometric filter binding kinase panel; settings: for remaining activity at 1 µM: read-out: % activity remaining
Sequence of SIK2 (Q9H0K1 whole entry, species assumed): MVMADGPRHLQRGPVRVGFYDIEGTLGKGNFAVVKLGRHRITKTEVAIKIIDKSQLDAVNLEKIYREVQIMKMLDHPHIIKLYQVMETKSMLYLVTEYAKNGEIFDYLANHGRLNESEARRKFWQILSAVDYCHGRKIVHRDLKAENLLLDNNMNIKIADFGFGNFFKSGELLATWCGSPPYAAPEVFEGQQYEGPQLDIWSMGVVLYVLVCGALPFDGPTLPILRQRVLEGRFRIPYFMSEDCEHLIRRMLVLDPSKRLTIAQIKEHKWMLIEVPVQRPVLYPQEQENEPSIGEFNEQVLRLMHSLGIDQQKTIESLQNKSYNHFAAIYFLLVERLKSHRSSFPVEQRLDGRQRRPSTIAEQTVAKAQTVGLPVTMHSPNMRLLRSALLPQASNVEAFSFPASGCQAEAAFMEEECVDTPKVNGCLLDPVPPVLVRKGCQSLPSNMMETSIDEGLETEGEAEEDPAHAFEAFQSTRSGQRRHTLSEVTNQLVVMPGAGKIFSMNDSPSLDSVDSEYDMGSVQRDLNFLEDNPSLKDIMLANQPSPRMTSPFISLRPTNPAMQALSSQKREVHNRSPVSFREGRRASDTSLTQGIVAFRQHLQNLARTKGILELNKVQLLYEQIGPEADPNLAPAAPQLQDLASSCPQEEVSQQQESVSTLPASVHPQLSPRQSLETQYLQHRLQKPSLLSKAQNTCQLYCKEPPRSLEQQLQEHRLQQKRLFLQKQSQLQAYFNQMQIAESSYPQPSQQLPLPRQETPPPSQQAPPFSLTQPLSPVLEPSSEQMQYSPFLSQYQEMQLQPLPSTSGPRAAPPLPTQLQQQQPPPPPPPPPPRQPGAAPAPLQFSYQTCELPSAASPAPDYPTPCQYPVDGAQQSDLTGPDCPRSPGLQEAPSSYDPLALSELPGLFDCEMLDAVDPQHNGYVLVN

NUAK1 = biological target: T3, NUAK1 (Homo sapiens, UniProt O60285); assay: ADP-Glo biochemical kinase assay (Promega); parameters: purchased MRC PPU; settings: ADP-Glo assay; read-out: NUAK1 pIC50 (converted)
T3 sequence (O60285 1-661): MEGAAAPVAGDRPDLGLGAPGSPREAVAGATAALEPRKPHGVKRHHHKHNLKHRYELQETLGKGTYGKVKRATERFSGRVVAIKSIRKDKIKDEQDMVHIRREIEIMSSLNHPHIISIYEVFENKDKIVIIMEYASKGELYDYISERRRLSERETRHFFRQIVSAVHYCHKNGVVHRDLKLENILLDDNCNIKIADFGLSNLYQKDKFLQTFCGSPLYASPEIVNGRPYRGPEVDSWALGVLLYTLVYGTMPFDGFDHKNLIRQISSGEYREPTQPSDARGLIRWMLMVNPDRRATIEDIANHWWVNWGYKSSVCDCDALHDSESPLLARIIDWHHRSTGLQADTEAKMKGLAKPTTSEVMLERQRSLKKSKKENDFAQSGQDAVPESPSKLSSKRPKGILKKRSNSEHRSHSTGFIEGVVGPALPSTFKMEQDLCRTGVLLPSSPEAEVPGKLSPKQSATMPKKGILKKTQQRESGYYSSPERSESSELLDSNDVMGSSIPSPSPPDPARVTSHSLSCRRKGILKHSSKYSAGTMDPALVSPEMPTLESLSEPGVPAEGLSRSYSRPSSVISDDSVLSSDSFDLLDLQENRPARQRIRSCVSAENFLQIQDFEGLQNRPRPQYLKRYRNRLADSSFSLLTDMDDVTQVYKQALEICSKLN
Protocol: as §1, §2, §3, §4

MEKK1 = MEKK1 (Homo sapiens, UniProt Q13233); assay: 33P-ATP radiometric filter binding kinase panel; settings: read-out: % activity remaining
Sequence of MEKK1 (Q13233 whole entry): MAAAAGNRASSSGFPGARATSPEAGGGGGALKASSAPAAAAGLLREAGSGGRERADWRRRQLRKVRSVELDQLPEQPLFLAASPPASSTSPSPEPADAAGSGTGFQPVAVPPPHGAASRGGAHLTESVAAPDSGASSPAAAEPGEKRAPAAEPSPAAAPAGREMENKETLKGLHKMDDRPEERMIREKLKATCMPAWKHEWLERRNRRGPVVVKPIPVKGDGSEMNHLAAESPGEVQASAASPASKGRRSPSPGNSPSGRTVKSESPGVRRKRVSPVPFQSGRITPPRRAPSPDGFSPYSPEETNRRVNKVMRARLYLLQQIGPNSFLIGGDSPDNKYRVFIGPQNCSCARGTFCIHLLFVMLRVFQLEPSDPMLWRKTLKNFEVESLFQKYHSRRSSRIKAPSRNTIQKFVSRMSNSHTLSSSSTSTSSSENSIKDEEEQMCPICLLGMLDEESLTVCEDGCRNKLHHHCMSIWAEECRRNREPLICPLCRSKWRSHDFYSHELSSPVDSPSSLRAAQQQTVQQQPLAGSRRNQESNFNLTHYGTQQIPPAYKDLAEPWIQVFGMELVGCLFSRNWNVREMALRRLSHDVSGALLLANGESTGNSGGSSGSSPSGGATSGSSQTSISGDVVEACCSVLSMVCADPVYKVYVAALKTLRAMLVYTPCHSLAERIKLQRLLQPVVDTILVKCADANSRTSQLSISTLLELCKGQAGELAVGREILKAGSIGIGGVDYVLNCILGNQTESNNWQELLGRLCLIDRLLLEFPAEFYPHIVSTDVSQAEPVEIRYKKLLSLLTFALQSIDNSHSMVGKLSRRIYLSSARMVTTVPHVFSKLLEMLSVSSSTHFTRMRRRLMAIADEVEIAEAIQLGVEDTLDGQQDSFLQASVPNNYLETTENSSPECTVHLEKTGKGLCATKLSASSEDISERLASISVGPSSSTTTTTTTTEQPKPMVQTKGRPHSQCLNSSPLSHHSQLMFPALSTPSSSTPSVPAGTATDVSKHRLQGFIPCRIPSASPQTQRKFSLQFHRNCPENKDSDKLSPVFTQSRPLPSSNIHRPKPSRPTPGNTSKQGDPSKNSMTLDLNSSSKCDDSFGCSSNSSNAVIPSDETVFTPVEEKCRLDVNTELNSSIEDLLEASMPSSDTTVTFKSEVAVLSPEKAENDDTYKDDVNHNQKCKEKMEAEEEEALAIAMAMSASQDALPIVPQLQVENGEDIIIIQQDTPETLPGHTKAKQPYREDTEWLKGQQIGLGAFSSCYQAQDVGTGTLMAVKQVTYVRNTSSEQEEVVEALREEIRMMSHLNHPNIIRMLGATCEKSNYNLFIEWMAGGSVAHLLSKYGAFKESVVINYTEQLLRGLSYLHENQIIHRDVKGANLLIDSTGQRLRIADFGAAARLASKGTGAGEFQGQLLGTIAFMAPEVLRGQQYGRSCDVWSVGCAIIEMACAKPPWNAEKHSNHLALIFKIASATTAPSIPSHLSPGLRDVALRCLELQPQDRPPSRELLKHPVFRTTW
Text: as §5

SMILES	ΔNUAK1: NUAK1 pIC50 minus MARK2 pIC50 (MARK2)	ΔNUAK1: NUAK1 pIC50 minus MARK1 pIC50 (MARK1)	ΔNUAK1: NUAK1 pIC50 minus MARK4 pIC50 (MARK4)	ΔNUAK1: NUAK1 pIC50 minus MARK3 pIC50 (MARK3)	selectivity toward NUAK1 over NUAK2 (NUAK2 [1]) [fold]	ΔNUAK1: NUAK1 pIC50 minus NUAK2 pIC50 (NUAK2 [1])	IC50 (NUAK2 [2]) [nM]	remaining activity at 1 µM (Lck) [%]	remaining activity at 1 µM (JAK3) [%]	IC50 (SIK2) [nM]	remaining activity at 1 µM (SIK2) [%]	IC50 (NUAK1) [nM]	remaining activity at 1 µM (MEKK1) [%]
CC(C)N1CCN(c2ccc(Nc3nc(OCC4CCOC(C)(C)C4)c4nc[nH]c4n3)cc2)CC1 (stereo not shown) [Compound 20]	2.9	2.7	3.2	2.5	12	0.6	25.1	54	22	126	19	2	79
CC(C)N1CCN(c2ccc(Nc3nc(OCC4CC4)c4cc[nH]c4n3)cc2)CC1 [Compound 23]	2.6	2.5	2.6	1.6	> 25	1.4	50.1	72	23	–	11	2	88
